{
  "source": "patent US20130310903A1",
  "about": "“Anti-Depression Light-Wave Device and Usage Thereof” (priority 2012, published 2013)",
  "origin": "cited, not measured here",
  "conditions": "12-week administration; for CGI outcome Worse: share of patients",
  "note": "Like-named read-outs stand apart in the source and are kept apart here.",
  "data": [
    {"smiles": "Fc1ccc([C@@H]2CCNC[C@H]2COc2ccc3c(c2)OCO3)cc1", "note": "[Paxil, Paroxetine]", "values": [
      {"measurement": "CGI outcome Minimally", "setting": "20 mg", "value": 33, "unit": "%"},
      {"measurement": "CGI outcome Much Improved", "setting": "20 mg", "value": 18, "unit": "%"},
      {"measurement": "CGI outcome No Change", "setting": "20 mg", "value": 35, "unit": "%"},
      {"measurement": "CGI outcome Very Much", "setting": "20 mg", "value": 7, "unit": "%"},
      {"measurement": "CGI outcome Worse", "setting": "20 mg", "value": 7, "unit": "%"},
      {"measurement": "CGI outcome Minimally", "setting": "40 mg", "value": 29, "unit": "%"},
      {"measurement": "CGI outcome Much Improved", "setting": "40 mg", "value": 22, "unit": "%"},
      {"measurement": "CGI outcome No Change", "setting": "40 mg", "value": 22, "unit": "%"},
      {"measurement": "CGI outcome Very Much", "setting": "40 mg", "value": 20, "unit": "%"},
      {"measurement": "CGI outcome Worse", "setting": "40 mg", "value": 7, "unit": "%"},
      {"measurement": "CGI outcome Minimally", "setting": "60 mg", "value": 34, "unit": "%"},
      {"measurement": "CGI outcome Much Improved", "setting": "60 mg", "value": 24, "unit": "%"},
      {"measurement": "CGI outcome No Change", "setting": "60 mg", "value": 19, "unit": "%"},
      {"measurement": "CGI outcome Very Much", "setting": "60 mg", "value": 20, "unit": "%"},
      {"measurement": "CGI outcome Worse", "setting": "60 mg", "value": 3, "unit": "%"}
    ]}
  ]
}
